We go through two molecules from US20220153746A1, “NITROGEN OXIDE-DONATING PDE-5 AND/OR PDE-6 INHIBITOR COMPOUNDS, AND USES THEREOF” (ILDONG PHARMACEUTICAL CO., LTD., priority 2020, published 2022).

One data set has as its target human PDE-5A1 (Homo sapiens, UniProt O76074). As to the kind of experiment: Human PDE-5A1 inhibition assay (fluorescence polarization, FAM-cGMP). In kind it is biochemical. The settings on record: read-out: IC50 (μM) PDE5A1. (In general: Fluorescence polarisation rises when a labelled molecule tumbles more slowly, as on binding a larger partner.)
The nature of data set [1]: Metabolic stability in human liver microsomes. In kind it is in vitro ADME. The settings on record: 37° C., 0-60 minutes. As to the method:
This example illustrates the metabolic stability of selected compounds in human liver microsomes samples.
Both test and control compound solutions were prepared by diluting 5 μL of the respective stock solutions (10 mM in DMSO) containing either the test or control compound with 495 μL of acetonitrile (ACN) to give intermediate solutions with concentrations of 100 μM (99% ACN).
β-Nicotinamide adenine dinucleotide phosphate tetrasodium salt (NADPH.4Na) was purchased from BONTAC (cat. No. BT04). The NADPH working solution (10 unit/mL) was prepared by combining the appropriate amount of NADPH powder and a MgCl2 solution (10 mM) to give final concentration in the reaction system of 1 unit/mL.
The appropriate concentrations of the microsome working solutions were prepared in 100 mM potassium phosphate buffer.
Cold (4° C.) acetonitrile solution containing 200 ng/mL tolbutamide and 200 ng/mL labetalol (internal standard) was used as the stop solution.
Liver microsomes solution was diluted to 0.56 mg/mL in 100 mM phosphate buffer, and 445 μL of this solution was transferred into pre-warmed (10 minutes) “incubation” plates T60 and NCF60; the “incubation” plates T60 and NCF60 were pre-warmed for 10 minutes at 37° C. with constant shaking.
54 μL of the liver microsome solutions was transferred to the blank plate, followed by addition of 6 μL of the NAPDH cofactor solution and 180 μL of the quenching solution to the same blank plate.
5 μL of the compound working solution (100 μM concentration) was next added to into the “incubation” plates (T60 and NCF60) containing microsomes and mixed 3 times thoroughly. For the NCF60 plate, 50 μL of the buffer solution was added, mixed 3 times thoroughly, and incubated at 37° C. for 60 minutes under constant shaking.
In the “Quenching” plate at T0 (T=0 min), 180 μL of quenching solution and 6 μL of the NAPDH cofactor solution were added, and the resulting plate was chilled to prevent evaporation.
In the T60 plate, after it was thoroughly mixed, 54 μL of the mixture was immediately transferred to the “quenching” plate for the 0-minute time point, followed by addition of 44 μL of NAPDH cofactor solution to the incubation plate (T60). The resulting mixture was then incubated at 37° C. for 60 minutes under constant shaking. At time points of 5, 10, 20, 30 and 60 minutes, 180 μL of the quenching solution was added to the “quenching” plates, followed by serial transfer of 60 μL of the mixture (per time point) from the T60 plate to the “Quenching” plates.
For the NCF60 plates, 60 μL of the sample solution was transferred from the NCF60 incubation plate to the “Quenching” plate containing quenching solution at T=60 min time point. […]
(In general: Liver microsomes are a subcellular fraction often used to study metabolism.)

Data set [2] in a line: Plasma protein binding assay (equilibrium dialysis). In kind it is in vitro ADME. The settings on record: human plasma, dialysis 4 hours at 37° C. As to the method: (§1) The dialysis device used in this example is a 96-well equilibrium dialysis plate (Cat #1006, HT Dialysis LLC, Gales Gerry, CT), and HTD 96 a/b dialysis membrane strips (Cat #1101, MWCO 12-14 kDa, HT Dialysis LLC). The dialysis device was assembled following the manufacturer's instructions.
(§2) The dialysis membrane strips were soaked in ultra-pure water at room temperature for approximately 1 hour. Each membrane strip containing 2 membranes was separated and soaked in 20:80 ethanol/water (v/v) for approximately 20 minutes, after which they were ready for used or were stored in the solution at 2-8° C. for up to a month. Prior to experiment, the membrane was rinsed and soaked for 20 minutes in ultra-pure water.
(§3) On the day of the experiment, the plasma was thawed by running under col tap water and centrifuged at 3220 rpm for 5 minutes to remove any clos. The pH value of the resulting plasma was checked. Only plasma with pH value with 7.0-8.0 could be used.
(§4) Both test and control compounds were dissolved in DMSO to achieve 10 mM stock solutions. Working solutions (400 μM) if test and control compounds were prepared by diluting 10μ of stock solutions with 240 μL of DMSO. Loading matrix solutions (2 μM) of both test and control compounds were prepared by diluting 5 μL of working solutions with 995 μL of blank matrix.
(§5) To prepare the loading matrix containing the test compound or control compounds, aliquots of either test compound working solutions or control compound working solution were spiked into blank matrix to achieve final test concentrations. The concentration of organic solvent in the final solutions were no more than 1% (normally 0.5%). The samples were mixture thoroughly before being used.
(§6) To prepare the time zero (T0) samples to be used for recovery determinations. 50 μL aliquots of loading matrix solution were transferred in triplicate to the sample collection plate. The samples were immediately matched with opposite blank buffer to obtain a final volume of 100 μL of 1:1 matrix/dialysis buffer (v/v) in each well. 500 μL of stop solution were added to these T0 samples. They were then stored at 2-8° C. pending further processes along with other post-dialysis samples.
(§7) To load the dialysis device, an aliquot of 150 μL of the loading matrix was transferred to the donor side of each dialysis well in triplicate, and 150 μL of the dialysis buffer was loaded to the received side of the well. The dialysis was placed in humidified incubator at 37° C. with 5% CO2 on a shaking platform that rated slowly (about 100 rpm) for 4 hours.
(§8) At the end of the dialysis, aliquots of 50 μL of samples were taken from both the buffer side and the matrix side of the dialysis deice. These samples were transferred into new 96-well plates (the sample collection plates). Each sample was mixed with an equal volume of opposite blank matrix (buffer or matrix) to reach a final volume of 100 μL of 1:1 matrix/dialysis buffer (v/v) in each well. All samples were further processed by adding 500 μL of stop solution containing internal standards. The mixture was vortexed and centrifuged at 4000 rpm for about 20 minutes. An aliquot of 100 μL of supernatant of all the samples were then removed for LC-MS/MS analysis.
(§9) The single blank samples were prepared by transferring 50 μL of blank matrix to a 96 well plate and adding 50 μL of blank PBS buffer to each well. The blank plasma must match the species of plasma used in the plasma side of the well. Then the matrix-matched samples were further processed by adding 500 μL of stop solution containing internal standards, following the same sample processing method as the dialysis samples.

The test system of the next data set is human plasma proteins. The data set is described as above. The settings on record: 2 μM, dialysis 4 hours at 37° C. In kind it is in vitro ADME. As to the method: as §1, §2, §3, §4, §5, §6, §7, §8, §9

Turning to `CCCc1nn(C)c2c(=O)[nH]c(-c3cc(S(=O)(=O)N4CC(CCCO)C4)ccc3OCC)nc12` [Compound 4, 5-(2-ethoxy-5-((3-(3-hydroxypropyl)azetidin-1-yl)sulfonyl)phenyl)-1-methyl-3-propyl-1,6-dihydro-7H-pyrazolo[4,3-d]pyrimidin-7-one], the IC50 at human PDE-5A1 was below 0.01 µM. The molecule further registered a CLint scaled at 1 µM in data set [1] of 357 mL/min/kg. The molecule also displayed a fraction unbound at 4 h, 2 µM in data set [2] of 0.0399. The “% Bound” value with human plasma proteins is 96.01%.

Molecule `CCCc1nn(C)c2c(=O)[nH]c(-c3cc(S(=O)(=O)N4CC(CCCO[N+](=O)[O-])C4)ccc3OCC)nc12` [Compound 18, 3-(1-((4-ethoxy-3-(1-methyl-7-oxo-3-propyl-6,7-dihydro-1H-pyrazolo[4,3-d]pyrimidin-5-yl)phenyl)sulfonyl)azetidin-3-yl)propyl nitrate] had a CLint scaled at 1 µM in data set [1] of 934 mL/min/kg. The molecule also showed a fraction unbound at 4 h, 2 µM in data set [2] of 0.0048. In addition, in the data set with human plasma proteins, the “% Bound” value amounted to 99.52%.

As a reminder, the IC50 is the concentration needed to halve the response being measured. As usually defined, the CLint scaled is the capacity of the preparation to metabolise the compound, expressed as a volume cleared per time. A low value points to greater metabolic stability. A word on the fraction unbound: it is free concentration divided by total concentration.
